Consider 30 compounds from patent publication US9073918B2, “Pyrazolo[4,3-b]pyridine-7-amine inhibitors of ALK5” (Takeda Pharmaceutical Company Limited, priority 2010, dated 2015).

For the test, the target named is T1, TGF-β R1 ALK5 (Homo sapiens, UniProt P36897).
T1 construct: purchased Invitrogen PV5837
T1 sequence (P36897 34-503): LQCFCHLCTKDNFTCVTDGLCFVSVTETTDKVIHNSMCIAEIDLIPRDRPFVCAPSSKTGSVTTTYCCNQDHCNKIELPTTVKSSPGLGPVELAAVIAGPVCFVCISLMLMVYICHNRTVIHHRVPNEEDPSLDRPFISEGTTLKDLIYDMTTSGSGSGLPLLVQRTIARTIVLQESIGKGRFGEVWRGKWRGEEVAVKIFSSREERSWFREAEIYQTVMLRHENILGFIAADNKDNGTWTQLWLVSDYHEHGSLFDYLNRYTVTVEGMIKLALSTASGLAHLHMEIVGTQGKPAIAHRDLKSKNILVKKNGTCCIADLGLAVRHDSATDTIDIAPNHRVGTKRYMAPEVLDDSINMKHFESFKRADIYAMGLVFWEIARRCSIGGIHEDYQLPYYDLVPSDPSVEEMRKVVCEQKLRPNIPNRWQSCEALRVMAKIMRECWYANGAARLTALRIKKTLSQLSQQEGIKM
The test can be described thus: In vitro inhibition of ALK5 (LanthaScreen activity assay, TR-FRET). The test is classed as biochemical. The procedure:
Test compounds were screened for TGF-β R1 ALK5 inhibition by use of a LanthaScreen™ activity assay (PV5837 Invitrogen, Invitrogen Corp. Madison, Wis.).
In brief, the assay procedure was as follows:
Solutions of test compounds were prepared in DMSO and diluted two-fold serially.
Assays were incubated for 90 minutes at room temperature and then quenched by the addition of 60 mM EDTA and 8 nM Terbium labeled anti-pSMAD3 Antibody (M4337 from Invitrogen) giving a final concentration of 15 mM EDTA and 2 nM Terbium labeled anti-pSMAD3 Antibody. Phosphorylated peptide product was quantified by measuring an increase in TR-FRET on a BMG LABTECH PHERA star plus. Response is defined as the ratio of Channel A/Channel B. The response of a blank (uninhibited) using vehicle alone is also determined. Enzyme activity was defined as the response of uninhibited enzyme activity minus the response of assays containing no enzyme. The percent inhibition of ALK5 at a given compound concentration is defined as: 100%×[1−(response compound/response blank)]
where response compound is defined as the enzyme activity in the presence of test compound and response blank is defined as the uninhibited enzyme activity. The pIC50 value (negative log of the molar concentration of the compound that produces 50% inhibition) of a test compound is calculated by non-linear least squares curve fitting of the equation: Percent Inhibition=100%/(1+(10−pIC50/10 log [I])).
Where inhibition was measured in multiple experiments the value in Table 1 is an average. N.T. means not tested.
(Time-resolved FRET reads energy transfer from a long-lived donor to a nearby acceptor.)
By IC50 is commonly meant the concentration that gives 50% inhibition. Read a low IC50 as inhibition by little substance. As to `CNC(=O)n1ncc2nccc(Nc3ccnc(-c4cc(C)ccc4F)c3)c21` [Example 75, 7-(2-(2-fluoro-5-methylphenyl)pyridin-4-ylamino)-N-methyl-1H-pyrazolo[4,3-b]pyridine-1-carboxamide], the IC50 was 25.1 nM.
To `CNC(=O)Cn1ncc2nccc(Nc3cc(-c4cc(F)ccc4F)ncc3C)c21` [Example 159, 2-(7-(2-(2,5-difluorophenyl)-5-methylpyridin-4-ylamino)-1H-pyrazolo[4,3-b]pyridin-1-yl)-N-methylacetamide] belongs 39.8 nM.
`Cc1ccc(F)c(-c2cc(Nc3ccnc4c[nH]nc34)ccn2)n1` [Example 64, N-(3′-fluoro-6′-methyl-2,2′-bipyridin-4-yl)-2H-pyrazolo[4,3-b]pyridin-7-amine] showed an IC50 of 126 nM.
The result for `Cc1cccc(-c2cc(Nc3ccnc4cn(CC(N)=O)nc34)c(C)cn2)n1` [Example 12, 2-(7-(5,6′-dimethyl-2,2′-bipyridin-4-ylamino)-2H-pyrazolo[4,3-b]pyridin-2-yl)acetamide] reads 31.6 nM; that for `CCNC(=O)n1ncc2nccc(Nc3ccnc(-c4cc(Cl)c(F)cc4F)c3)c21` [Example 62, 7-(2-(5-chloro-2,4-difluorophenyl)pyridin-4-ylamino)-N-ethyl-1H-pyrazolo[4,3-b]pyridine-1-carboxamide], 12.6 nM; that for `CCNC(=O)n1ncc2nccc(Nc3ccnc(-c4cc(C)ccc4F)c3)c21` [Example 80, N-ethyl-7-(2-(2-fluoro-5-methylphenyl)pyridin-4-ylamino)-1H-pyrazolo[4,3-b]pyridine-1-carboxamide], 31.6 nM.
`Cc1cnc(-c2cc(Cl)ccc2F)nc1Nc1ccnc2cnn(CC(N)=O)c12` [Example 3, 2-(7-(2-(5-chloro-2-fluorophenyl)-5-methylpyrimidin-4-ylamino)-1H-pyrazolo[4,3-b]pyridin-1-yl)acetamide] showed an IC50 of 6.31 nM.
The result for `NC(=O)n1ncc2nccc(Nc3ccnc(-c4cc(Cl)ccc4F)c3)c21` [Example 30, 7-(2-(5-chloro-2-fluorophenyl)pyridin-4-ylamino)-1H-pyrazolo[4,3-b]pyridine-1-carboxamide] reads 50.1 nM.
The compound `Cc1ccc(F)c(-c2cc(Nc3ccnc4cnn(CC(N)=O)c34)c(C)cn2)n1` [Example 13, 2-(7-(3′-fluoro-5,6′-dimethyl-2,2′-bipyridin-4-ylamino)-1H-pyrazolo[4,3-b]pyridin-1-yl)acetamide] had an IC50 of 2.51 nM.
For `Fc1ccc(Cl)cc1-c1cc(Nc2ccnc3cn(CC4CCCO4)nc23)ccn1` (stereo not drawn) [Example 25, N-(2-(5-chloro-2-fluorophenyl)pyridin-4-yl)-2-((tetrahydrofuran-2-yl)methyl)-2H-pyrazolo[4,3-b]pyridin-7-amine], half-maximal inhibition (IC50) required 2510 nM.
`Cc1ccc(F)c(-c2cc(Nc3ccnc4cnn(CC(N)=O)c34)ccn2)n1` [Example 85, 2-(7-(3′-fluoro-6′-methyl-2,2′-bipyridin-4-ylamino)-1H-pyrazolo[4,3-b]pyridin-1-yl)acetamide] had an IC50 of 25.1 nM.
To `CN(C)C(=O)Cn1ncc2nccc(Nc3ccnc(-c4cc(Cl)ccc4F)c3)c21` [Example 38, 2-(7-(2-(5-chloro-2-fluorophenyl)pyridin-4-ylamino)-1H-pyrazolo[4,3-b]pyridin-1-yl)-N,N-dimethylacetamide] belongs 251 nM.
To `CC(C(N)=O)n1cc2nccc(Nc3ccnc(-c4cc(Cl)ccc4F)c3)c2n1` (stereo not drawn) [Example 45, 2-(7-(2-(5-chloro-2-fluorophenyl)pyridin-4-ylamino)-2H-pyrazolo[4,3-b]pyridin-2-yl)propanamide] belongs 50.1 nM.
Take `Cc1cnc(-c2cc(Cl)ccc2F)nc1Nc1ccnc2cn(CC(N)=O)nc12` [Example 4, 2-(7-(2-(5-chloro-2-fluorophenyl)-5-methylpyrimidin-4-ylamino)-2H-pyrazolo[4,3-b]pyridin-2-yl)acetamide]: the IC50 is 6.31 nM.
`Cc1ccc(F)c(-c2cc(Nc3ccnc4cn(CC(N)=O)nc34)c(C)cn2)n1` [Example 14, 2-(7-(3′-fluoro-5,6′-dimethyl-2,2′-bipyridin-4-ylamino)-2H-pyrazolo[4,3-b]pyridin-2-yl)acetamide] gave an IC50 of 10 nM. This IC50 is about 1.6-fold higher than that of the compound before.
The result for `CCNC(=O)n1ncc2nccc(Nc3cc(C)nc(-c4cc(Cl)ccc4F)c3)c21` [Example 59, 7-(2-(5-chloro-2-fluorophenyl)-6-methylpyridin-4-ylamino)-N-ethyl-1H-pyrazolo[4,3-b]pyridine-1-carboxamide] reads 316 nM; that for `Cc1ccc(F)c(-c2cc(Nc3ccnc4cn(CCO)nc34)ccn2)n1` [Example 72, 2-(7-(3′-fluoro-6′-methyl-2,2′-bipyridin-4-ylamino)-2H-pyrazolo[4,3-b]pyridin-2-yl)ethanol], 158 nM; that for `Fc1ccc(Cl)cc1-c1cc(Nc2ccnc3cn(CC4CCOCC4)nc23)ccn1` [Example 23, N-(2-(5-chloro-2-fluorophenyl)pyridin-4-yl)-2-((tetrahydro-2H-pyran-4-yl)methyl)-2H-pyrazolo[4,3-b]pyridin-7-amine], 316 nM.
To `Cc1cc(Nc2ccnc3cn[nH]c23)cc(-c2cc(Cl)ccc2F)n1` [Example 57, N-(2-(5-chloro-2-fluorophenyl)-6-methylpyridin-4-yl)-1H-pyrazolo[4,3-b]pyridin-7-amine] belongs 39.8 nM; to `Cc1ccc(F)c(-c2cc(Nc3ccnc4cn(CC(N)=O)nc34)ccn2)n1` [Example 84, 2-(7-(3′-fluoro-6′-methyl-2,2′-bipyridin-4-ylamino)-2H-pyrazolo[4,3-b]pyridin-2-yl)acetamide], 31.6 nM; to `Cc1ccc(F)c(-c2cc(Nc3ccnc4cn(CCO)nc34)c(C)cn2)n1` [Example 9, 2-(7-(3′-fluoro-5,6′-dimethyl-2,2′-bipyridin-4-ylamino)-2H-pyrazolo[4,3-b]pyridin-2-yl)ethanol], 7.94 nM.
`Cc1ccc(F)c(-c2cc(Nc3ccnc4cn(CC(C)(C)O)nc34)c(C)cn2)n1` [Example 8, 1-(7-(3′-fluoro-5,6′-dimethyl-2,2′-bipyridin-4-ylamino)-2H-pyrazolo[4,3-b]pyridin-2-yl)-2-methylpropan-2-ol] showed an IC50 of 251 nM.
The result for `O=C(Cn1ncc2nccc(Nc3ccnc(-c4cc(Cl)ccc4F)c3)c21)N1CCOCC1` [Example 42, 2-(7-(2-(5-chloro-2-fluorophenyl)pyridin-4-ylamino)-1H-pyrazolo[4,3-b]pyridin-1-yl)-1-morpholinoethanone] reads 316 nM.
`CCS(=O)(=O)n1cc2nccc(Nc3cc(C)nc(-c4cc(Cl)ccc4F)c3)c2n1` [Example 61, N-(2-(5-chloro-2-fluorophenyl)-6-methylpyridin-4-yl)-2-(ethylsulfonyl)-2H-pyrazolo[4,3-b]pyridin-7-amine] gave an IC50 of 251 nM.
The compound `Fc1ccc(Cl)cc1-c1cc(Nc2ccnc3cnn(CC4CCNCC4)c23)ccn1` [Example 26, N-(2-(5-chloro-2-fluorophenyl)pyridin-4-yl)-1-(piperidin-4-ylmethyl)-1H-pyrazolo[4,3-b]pyridin-7-amine] had an IC50 of 2510 nM.
In the case of `NC(=O)Cn1ncc2nccc(Nc3ccnc(-c4cc(Cl)ccc4F)c3)c21` [Example 44, 2-(7-(2-(5-chloro-2-fluorophenyl)pyridin-4-ylamino)-1H-pyrazolo[4,3-b]pyridin-1-yl)acetamide], the IC50 is 31.6 nM. Compared with the last compound, the IC50 is about 79-fold lower.
As to `CNC(=O)n1ncc2nccc(Nc3ccnc(-c4nc(C)ccc4F)c3)c21` [Example 74, 7-(3′-fluoro-6′-methyl-2,2′-bipyridin-4-ylamino)-N-methyl-1H-pyrazolo[4,3-b]pyridine-1-carboxamide], the IC50 is 39.8 nM.
The result for `Cc1ccc(F)c(-c2cc(Nc3ccnc4cnn(C5CCN(S(C)(=O)=O)CC5)c34)ccn2)c1` [Example 78, N-(2-(2-fluoro-5-methylphenyl)pyridin-4-yl)-1-(1-(methylsulfonyl)piperidin-4-yl)-1H-pyrazolo[4,3-b]pyridin-7-amine] reads 631 nM; that for `O=C1NCCN1CCn1ncc2nccc(Nc3ccnc(-c4cc(Cl)ccc4F)c3)c21` [Example 41, 1-(2-(7-(2-(5-chloro-2-fluorophenyl)pyridin-4-ylamino)-1H-pyrazolo[4,3-b]pyridin-1-yl)ethyl)imidazolidin-2-one], 316 nM; that for `Fc1ccc(Cl)cc1-c1cc(Nc2ccnc3cnn(CC4CCOCC4)c23)ccn1` [Example 24, N-(2-(5-chloro-2-fluorophenyl)pyridin-4-yl)-1-((tetrahydro-2H-pyran-4-yl)methyl)-1H-pyrazolo[4,3-b]pyridin-7-amine], 1580 nM.
